PubChem BioAssay AID330 (DTP/NCI, 2004)
“And” between values parts separate entries of the source, which are not always exact repeats. Identical values can stand only once. Toxic doses and inconclusive results are not listed. The calls were made as follows: active = survival T/C of 150% or more; inactive = T/C below 125% in these data.

Test system: P388 leukemia ip, CD2F1 mice, survival T/C
Test: NCI In Vivo Anticancer Drug Screen. Data for tumor model P388 Leukemia (intraperitoneal) in CD2F1 (CDF1) mice
Conditions: endpoint: median survival time, higher = longer survival
Outline: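 Mice carrying the transplanted tumor received test compound or vehicle. Survival was recorded in each group, and the value is the treated-group measurement divided by that of the vehicle-treated control group.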

[1] = dose: 12.5 mg/kg/injection, schedule: Q01DX009 (ip), vehicle: saline
[2] = dose: 25.0 mg/kg/injection, schedule: Q01DX009 (ip), vehicle: saline
[3] = dose: 50.0 mg/kg/injection, schedule: Q01DX009 (ip), vehicle: saline with Tween-80
[4] = dose: 50.0 mg/kg/injection, schedule: Q01DX009 (ip), vehicle: saline
[5] = dose: 50.0 mg/kg/injection, schedule: Q01DX005 (ip), vehicle: saline with Tween-80
[6] = dose: 100.0 mg/kg/injection, schedule: Q01DX005 (ip), vehicle: saline with Tween-80
[7] = dose: 200.0 mg/kg/injection, schedule: Q01DX005 (ip), vehicle: saline with Tween-80
[8] = dose: 60.0 mg/kg/injection, schedule: Q01DX005 (ip), vehicle: saline with Tween-80
[9] = dose: 120.0 mg/kg/injection, schedule: Q01DX005 (ip), vehicle: saline with Tween-80
[10] = dose: 240.0 mg/kg/injection, schedule: Q01DX005 (ip), vehicle: saline with Tween-80
[11] = dose: 12.5 mg/kg/injection, schedule: Q01DX009 (ip), vehicle: saline with Tween-80
[12] = dose: 25.0 mg/kg/injection, schedule: Q01DX009 (ip), vehicle: saline with Tween-80
[13] = dose: 200.0 mg/kg/injection, schedule: Q01DX009 (ip), vehicle: saline with Tween-80
[14] = dose: 100.0 mg/kg/injection, schedule: Q01DX009 (ip), vehicle: saline with Tween-80
[15] = dose: 100.0 mg/kg/injection, schedule: Q01DX009 (ip), vehicle: saline
[16] = dose: 200.0 mg/kg/injection, schedule: Q01DX009 (ip), vehicle: saline
[17] = dose: 400.0 mg/kg/injection, schedule: Q01DX009 (ip), vehicle: saline

Measured: T/C

CN1CCC(=C2c3ccccc3Oc3ncccc32)CC1
inactive: [1] 102 % of control | [2] 111 % of control | [3] 102 % of control | [4] 99 % of control

CN1CCC2(CC1)C(C#N)C(=O)NC(=O)C2C#N (stereo not given)
inactive: [5] 105 % of control | [6] 100 % of control | [7] 100 % of control

CCOC(=O)/C=C(\C)C(F)(F)F
inactive: dose: 15.0 mg/kg/injection, schedule: Q01DX005 (ip), vehicle: saline with Tween-80 95 % of control | dose: 30.0 mg/kg/injection, schedule: Q01DX005 (ip), vehicle: saline with Tween-80 100 % of control and 103 % of control | [8] 98 % of control and 104 % of control and 94 % of control | [9] 100 % of control and 101 % of control | [10] 106 % of control and 111 % of control

COC(=O)C1(C2CCCCCCC2=O)NC(=S)NC(=O)C1C#N (stereo not given)
inactive: [8] 92 % of control | [9] 99 % of control | [10] 99 % of control

CCCCCCC(=O)/C=C/c1cccc(OCc2ccc([N+](=O)[O-])cc2)c1
inactive: [11] 86 % of control | [12] 89 % of control | [3] 87 % of control and 91 % of control | [13] 88 % of control

COc1ccc(S(=O)(=O)N/N=C/c2cc([N+](=O)[O-])cc(I)c2O)cc1OC
inactive: [8] 97 % of control | [9] 94 % of control | [10] 91 % of control

Brc1cnc2ccccn12
inactive: [3] 101 % of control | [14] 102 % of control | [13] 114 % of control

CNc1nc2c(N)ncnc2n1C1OC(CO)C(O)C1O (stereo not given)
inactive: dose: 6.25 mg/kg/injection, schedule: Q01DX009 (ip), vehicle: suspension in saline 94 % of control | dose: 12.5 mg/kg/injection, schedule: Q01DX009 (ip), vehicle: suspension in saline 112 % of control

O=S(=O)(C(c1ccc(Cl)cc1)c1ccc(Cl)cc1)C(Cl)(Cl)Cl
inactive: dose: 25.0 mg/kg/injection, schedule: Q01DX001 (ip), vehicle: Klucel (hydroxypropylcellulose) (HPC) 108 % of control | dose: 50.0 mg/kg/injection, schedule: Q01DX001 (ip), vehicle: Klucel (hydroxypropylcellulose) (HPC) 102 % of control | dose: 100.0 mg/kg/injection, schedule: Q01DX001 (ip), vehicle: Klucel (hydroxypropylcellulose) (HPC) 102 % of control

C1=NCCCN2CCCCC12 (stereo not given)
inactive: dose: 20.0 mg/kg/injection, schedule: Q01DX009 (ip), vehicle: saline 98 % of control | dose: 40.0 mg/kg/injection, schedule: Q01DX009 (ip), vehicle: saline 93 % of control

CC(=O)Nc1cc(C)ns1
inactive: [2] 101 % of control | [4] 109 % of control | [15] 101 % of control | [16] 89 % of control

CCOC(=O)C(CCC#N)(C(=O)Cc1ccc(OC)c(OC)c1)C(=O)OCC
inactive: dose: 25.0 mg/kg/injection, schedule: Q01DX009 (ip), vehicle: other 101 % of control | dose: 50.0 mg/kg/injection, schedule: Q01DX009 (ip), vehicle: other 103 % of control | dose: 100.0 mg/kg/injection, schedule: Q01DX009 (ip), vehicle: other 106 % of control | dose: 200.0 mg/kg/injection, schedule: Q01DX009 (ip), vehicle: other 103 % of control | dose: 400.0 mg/kg/injection, schedule: Q01DX009 (ip), vehicle: other 103 % of control

CCc1n[nH]c(CC)c1CCCCCCOc1ccc(OC)cc1Cl
inactive: [5] 102 % of control | [8] 100 % of control | [6] 105 % of control | [9] 93 % of control | [7] 108 % of control | [10] 106 % of control

CCCCCNC(=S)N/N=C(\C)c1ccccn1
inactive: dose: 12.5 mg/kg/injection, schedule: Q01DX009 (ip), vehicle: Klucel (hydroxypropylcellulose) (HPC) 107 % of control | dose: 25.0 mg/kg/injection, schedule: Q01DX009 (ip), vehicle: Klucel (hydroxypropylcellulose) (HPC) 123 % of control | dose: 50.0 mg/kg/injection, schedule: Q01DX009 (ip), vehicle: Klucel (hydroxypropylcellulose) (HPC) 106 % of control

COc1ccc(C(Nc2ccc([N+](=O)[O-])cc2)P(=O)(c2ccccc2)c2ccccc2)cc1 (stereo not given)
inactive: [8] 99 % of control | [9] 92 % of control | [10] 88 % of control

COC(=O)C(Sc1ccc(Cl)cc1)C1SC(=S)N(C)C1=O (stereo not given)
inactive: [11] 96 % of control | [12] 116 % of control and 88 % of control | [3] 104 % of control and 112 % of control | [14] 103 % of control and 107 % of control

CC(C)(CO)[C@@H](O)C(=O)NCCC(=O)O
inactive: [4] 108 % of control | [15] 113 % of control | [16] 106 % of control

OC1CCOC1 (stereo not given)
inactive: dose: 6.25 mg/kg/injection, schedule: Q01DX009 (ip), vehicle: saline 95 % of control | [1] 97 % of control | [2] 100 % of control | [4] 101 % of control | [15] 101 % of control | [16] 98 % of control | [17] 94 % of control | dose: 800.0 mg/kg/injection, schedule: Q01DX009 (ip), vehicle: saline 96 % of control

CCOC(=O)C(CC)c1ccccc1 (stereo not given)
inactive: [3] 99 % of control | [14] 102 % of control | [13] 112 % of control

Cn1c(=O)[nH]c(N)c(NC=O)c1=O
inactive: [5] 103 % of control | [6] 101 % of control | [7] 101 % of control

CC(C)c1ccc(C2C3CCN2CC3)cc1 (stereo not given)
inactive: [4] 91 % of control

COc1ccc(C(NC(N)=O)c2cc3c(cc2OC(C)=O)OCO3)c(OC)c1 (stereo not given)
inactive: dose: 15.0 mg/kg/injection, schedule: Q01DX005 (ip), vehicle: Klucel (hydroxypropylcellulose) (HPC) 91 % of control | dose: 30.0 mg/kg/injection, schedule: Q01DX005 (ip), vehicle: Klucel (hydroxypropylcellulose) (HPC) 92 % of control | dose: 60.0 mg/kg/injection, schedule: Q01DX005 (ip), vehicle: Klucel (hydroxypropylcellulose) (HPC) 90 % of control and 91 % of control

COC(=O)C1(C)CCCC2(C)C3=CC(=O)OC3(OC)CCC12 (stereo not given)
inactive: dose: 2.5 mg/kg/injection, schedule: Q01DX009 (ip), vehicle: saline with Tween-80 107 % of control | dose: 5.0 mg/kg/injection, schedule: Q01DX009 (ip), vehicle: saline with Tween-80 101 % of control | dose: 10.0 mg/kg/injection, schedule: Q01DX009 (ip), vehicle: saline with Tween-80 103 % of control

COC(=O)CCCC1=NC2=CC=CC3=NC(C)=NC(=N1)N23
inactive: [11] 123 % of control | [12] 114 % of control | [3] 98 % of control | [14] 104 % of control

C/C(=N\O)C(O)c1ccccc1 (stereo not given)
inactive: [15] 88 % of control | [16] 93 % of control | [17] 100 % of control

CC1CC[N-]CC1.CC1CC[N-]CC1.CC1CC[N-]CC1.CC1CC[N-]CC1.[Cl][Rh][Cl]
inactive: [12] 104 % of control | [3] 104 % of control

CN(C)C(=S)SCc1ccc(C(=O)O)nc1
inactive: [3] 99 % of control | [14] 98 % of control

Cc1ccc(NC(=O)CCCCC(C)NCC(O)c2ccc(O)c(O)c2)cc1 (stereo not given)
inactive: dose: 100.0 mg/kg/injection, schedule: Q01DX001 (ip), vehicle: saline 97 % of control | dose: 200.0 mg/kg/injection, schedule: Q01DX001 (ip), vehicle: saline 100 % of control

COc1cc(C(c2cc3c(cc2O)OCO3)N2CCN(C(c3cc(OC)c(OC)c(OC)c3)c3cc4c(cc3O)OCO4)CC2)cc(OC)c1OC (stereo not given)
inactive: [8] 87 % of control | [9] 90 % of control | [10] 87 % of control

Nc1nc(N)c(N=O)c(N)n1
inactive: dose: 44.0 mg/kg/injection, schedule: Q01DX009 (ip), vehicle: saline 104 % of control | dose: 66.0 mg/kg/injection, schedule: Q01DX009 (ip), vehicle: saline 104 % of control | [15] 104 % of control | dose: 150.0 mg/kg/injection, schedule: Q01DX009 (ip), vehicle: saline 102 % of control

C[C@@H]1CC[C@]2(C)CC[C@]3(C)C(=CC[C@@H]4[C@@]5(C)CC[C@H](O)C(C)(C)[C@@H]5CC[C@]43C)[C@@H]2[C@H]1C(=O)O
inactive: dose: 0.5 mg/kg/injection, schedule: Q01DX005 (ip), vehicle: DMSO 99 % of control | dose: 1.0 mg/kg/injection, schedule: Q01DX005 (ip), vehicle: DMSO 101 % of control | dose: 2.0 mg/kg/injection, schedule: Q01DX005 (ip), vehicle: DMSO 100 % of control | dose: 4.0 mg/kg/injection, schedule: Q01DX005 (ip), vehicle: DMSO 100 % of control and 108 % of control | dose: 8.0 mg/kg/injection, schedule: Q01DX005 (ip), vehicle: DMSO 98 % of control

COc1ccc2[nH]c(=O)oc(=O)c2c1
inactive: [2] 100 % of control | [4] 96 % of control | [15] 107 % of control | [16] 107 % of control

CCc1cccc(C)c1NC(=O)C(=O)CC(=O)c1ccc(Cl)cc1Cl
inactive: [8] 114 % of control | [9] 116 % of control | [10] 113 % of control

CCCCCCCCCC(=O)c1ccc(O)c(O)c1O
inactive: [15] 100 % of control | [16] 105 % of control
